Source: ChEMBL document CHEMBL5143714, “Discovery of BMS-986339, a Pharmacologically Differentiated Farnesoid X Receptor Agonist for the Treatment of Nonalcoholic Steatohepatitis” (J Med Chem, 2022)

What was measured:
Mus musculus = test: Antifibrotic activity against bile duct ligation-induced liver cholestasis C57BL/6NTac mouse model assessed as reduction in collagen level administered orally as single dose for 9 days and measured after 24 hrs post-last dose by picrosirius red staining method; format: functional, organism-based; details: dose 0.3-10 mg/kg, route po, time 9.0 day, DDE = dose-dependent effect
Bile salt export pump = Bile salt export pump (Homo sapiens, UniProt O95342); test: Inhibition of BSEP (unknown origin)
Sequence of Bile salt export pump (O95342 whole entry): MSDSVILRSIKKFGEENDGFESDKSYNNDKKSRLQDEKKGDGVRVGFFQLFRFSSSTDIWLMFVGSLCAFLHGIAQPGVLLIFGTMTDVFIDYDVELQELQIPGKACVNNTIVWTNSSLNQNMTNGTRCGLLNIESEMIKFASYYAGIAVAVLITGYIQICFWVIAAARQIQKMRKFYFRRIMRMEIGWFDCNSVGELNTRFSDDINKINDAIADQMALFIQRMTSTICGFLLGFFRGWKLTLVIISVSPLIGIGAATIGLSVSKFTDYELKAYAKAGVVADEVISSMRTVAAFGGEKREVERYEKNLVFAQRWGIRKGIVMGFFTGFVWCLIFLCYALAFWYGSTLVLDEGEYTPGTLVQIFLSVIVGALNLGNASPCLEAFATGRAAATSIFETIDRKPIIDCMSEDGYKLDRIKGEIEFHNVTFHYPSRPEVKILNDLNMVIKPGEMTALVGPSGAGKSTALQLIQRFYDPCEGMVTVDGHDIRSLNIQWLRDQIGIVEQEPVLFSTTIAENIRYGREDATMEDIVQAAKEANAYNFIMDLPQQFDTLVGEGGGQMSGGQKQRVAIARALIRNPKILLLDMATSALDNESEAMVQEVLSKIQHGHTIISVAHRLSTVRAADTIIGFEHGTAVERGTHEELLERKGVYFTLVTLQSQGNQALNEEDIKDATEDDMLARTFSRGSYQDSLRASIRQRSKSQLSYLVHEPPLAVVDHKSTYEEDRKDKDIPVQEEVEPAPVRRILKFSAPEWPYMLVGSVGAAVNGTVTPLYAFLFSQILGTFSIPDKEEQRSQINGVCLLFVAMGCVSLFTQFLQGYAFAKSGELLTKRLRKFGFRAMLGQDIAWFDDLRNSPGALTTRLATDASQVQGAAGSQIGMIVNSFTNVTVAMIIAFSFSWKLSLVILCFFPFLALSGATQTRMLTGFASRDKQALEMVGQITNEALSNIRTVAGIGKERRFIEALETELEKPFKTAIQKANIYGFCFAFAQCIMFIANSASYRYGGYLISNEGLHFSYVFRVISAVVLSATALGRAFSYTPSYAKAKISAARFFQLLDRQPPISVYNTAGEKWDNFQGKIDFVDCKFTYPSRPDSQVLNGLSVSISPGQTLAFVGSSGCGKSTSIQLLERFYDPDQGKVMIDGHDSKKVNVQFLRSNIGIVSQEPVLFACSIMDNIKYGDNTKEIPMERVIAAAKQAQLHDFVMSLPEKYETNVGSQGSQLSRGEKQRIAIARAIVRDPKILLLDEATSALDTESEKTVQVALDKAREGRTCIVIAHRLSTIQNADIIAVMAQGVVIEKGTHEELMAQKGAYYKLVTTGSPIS

[1] = Clearance in Sprague-Dawley rat at 1 mg/kg, iv; format: ADME, organism-based; details: in vivo
[2] = biological target: T1, Bile acid receptor (Homo sapiens) (UniProt Q96RI1); test: Agonist activity at LBD-fused human FXR in HEK293 cells incubated for 30 min by envision plate reader method relative to GW2064; format: cell-based; details: filed as agonist
T1 sequence (whole entry): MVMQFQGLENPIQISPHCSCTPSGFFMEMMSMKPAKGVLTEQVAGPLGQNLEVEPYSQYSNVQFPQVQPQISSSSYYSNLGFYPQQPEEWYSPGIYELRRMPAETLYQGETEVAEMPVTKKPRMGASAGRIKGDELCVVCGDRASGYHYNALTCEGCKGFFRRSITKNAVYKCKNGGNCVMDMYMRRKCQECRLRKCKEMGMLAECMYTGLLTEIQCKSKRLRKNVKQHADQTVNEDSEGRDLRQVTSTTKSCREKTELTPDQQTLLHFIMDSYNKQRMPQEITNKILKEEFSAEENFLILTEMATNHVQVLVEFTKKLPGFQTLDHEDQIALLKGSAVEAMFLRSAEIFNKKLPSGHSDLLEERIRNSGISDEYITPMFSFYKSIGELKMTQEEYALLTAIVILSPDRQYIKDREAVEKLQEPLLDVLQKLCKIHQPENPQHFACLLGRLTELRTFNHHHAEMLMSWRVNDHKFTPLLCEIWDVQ

[3] = biological target: T2, UDP-glucuronosyltransferase 1A1 (Homo sapiens, UniProt P22309); test: Inhibition of human UGT1A1
T2 sequence (P22309 whole entry): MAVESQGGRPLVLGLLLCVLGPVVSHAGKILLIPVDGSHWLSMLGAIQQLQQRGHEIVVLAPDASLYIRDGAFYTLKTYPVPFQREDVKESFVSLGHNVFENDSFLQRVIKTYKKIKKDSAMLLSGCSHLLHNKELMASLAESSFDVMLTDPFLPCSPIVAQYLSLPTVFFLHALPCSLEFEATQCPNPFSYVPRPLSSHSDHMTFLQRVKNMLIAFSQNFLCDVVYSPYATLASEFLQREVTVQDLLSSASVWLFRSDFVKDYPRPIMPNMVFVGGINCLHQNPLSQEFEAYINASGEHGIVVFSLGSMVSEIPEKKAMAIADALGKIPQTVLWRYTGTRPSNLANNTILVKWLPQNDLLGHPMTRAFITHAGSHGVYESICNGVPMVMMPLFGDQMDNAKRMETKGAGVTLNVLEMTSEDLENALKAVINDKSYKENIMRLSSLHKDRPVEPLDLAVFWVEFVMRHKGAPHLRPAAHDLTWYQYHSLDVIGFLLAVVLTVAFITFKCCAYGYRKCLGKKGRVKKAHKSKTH

[4] = biological target: Voltage-gated inwardly rectifying potassium channel KCNH2 (Homo sapiens, UniProt Q12809); test: Inhibition of hERG by patch clamp assay; format: toxicity
Sequence of Voltage-gated inwardly rectifying potassium channel KCNH2 (Q12809 whole entry): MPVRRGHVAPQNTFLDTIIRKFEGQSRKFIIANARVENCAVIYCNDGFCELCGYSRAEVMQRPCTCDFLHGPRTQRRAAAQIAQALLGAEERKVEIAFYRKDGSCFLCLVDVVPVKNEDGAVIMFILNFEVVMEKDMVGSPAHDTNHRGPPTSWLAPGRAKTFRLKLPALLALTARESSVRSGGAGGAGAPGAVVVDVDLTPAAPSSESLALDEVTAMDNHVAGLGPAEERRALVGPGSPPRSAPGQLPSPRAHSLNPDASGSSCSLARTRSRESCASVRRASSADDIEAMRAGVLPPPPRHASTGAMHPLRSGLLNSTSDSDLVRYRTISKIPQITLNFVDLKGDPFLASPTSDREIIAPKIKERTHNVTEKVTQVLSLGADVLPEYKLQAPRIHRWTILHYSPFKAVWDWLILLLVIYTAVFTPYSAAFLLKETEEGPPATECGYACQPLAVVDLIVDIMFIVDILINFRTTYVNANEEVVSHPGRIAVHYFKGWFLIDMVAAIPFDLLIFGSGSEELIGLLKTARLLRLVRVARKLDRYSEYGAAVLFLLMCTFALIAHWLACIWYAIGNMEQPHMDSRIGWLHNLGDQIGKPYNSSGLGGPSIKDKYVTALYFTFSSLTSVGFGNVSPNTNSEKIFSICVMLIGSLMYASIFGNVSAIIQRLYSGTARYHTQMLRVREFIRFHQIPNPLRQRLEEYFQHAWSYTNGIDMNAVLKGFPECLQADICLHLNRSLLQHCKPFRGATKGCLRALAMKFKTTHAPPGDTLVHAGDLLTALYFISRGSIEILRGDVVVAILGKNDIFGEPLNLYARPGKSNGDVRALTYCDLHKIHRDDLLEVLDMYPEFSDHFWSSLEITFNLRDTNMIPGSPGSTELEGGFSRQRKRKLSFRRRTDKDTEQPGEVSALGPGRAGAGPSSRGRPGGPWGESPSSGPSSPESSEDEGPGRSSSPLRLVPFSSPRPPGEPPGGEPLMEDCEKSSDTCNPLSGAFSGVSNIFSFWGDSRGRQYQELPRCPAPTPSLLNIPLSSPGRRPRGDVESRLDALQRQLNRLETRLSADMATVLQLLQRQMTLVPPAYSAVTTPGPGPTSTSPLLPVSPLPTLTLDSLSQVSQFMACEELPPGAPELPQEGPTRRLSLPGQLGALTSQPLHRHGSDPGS

[5] = Volume of distribution at steady state in Sprague-Dawley rat at 1 mg/kg, iv; format: ADME, organism-based; details: in vivo, read-out: Vdss
Bile acid receptor [6] = biological target: T3, Bile acid receptor (Homo sapiens, UniProt Q96RI1); test: Agonist activity at LBD fused human FXR in HEK293 cells incubated for 30 min by envision plate reader method; format: cell-based
T3 sequence (Q96RI1 whole entry): T1 sequence (whole entry)

[7] = Clearance in C57BL6 mouse at 1 mg/kg, iv; format: ADME, organism-based; details: in vivo
[8] = biological target: T4, Bile acid receptor (Mus musculus) (UniProt Q60641); test: Agonist activity at LBD-fused mouse FXR in HEK293 cells incubated for 30 min by envision plate reader method relative to GW2064; format: cell-based; details: filed as agonist
T4 sequence (whole entry): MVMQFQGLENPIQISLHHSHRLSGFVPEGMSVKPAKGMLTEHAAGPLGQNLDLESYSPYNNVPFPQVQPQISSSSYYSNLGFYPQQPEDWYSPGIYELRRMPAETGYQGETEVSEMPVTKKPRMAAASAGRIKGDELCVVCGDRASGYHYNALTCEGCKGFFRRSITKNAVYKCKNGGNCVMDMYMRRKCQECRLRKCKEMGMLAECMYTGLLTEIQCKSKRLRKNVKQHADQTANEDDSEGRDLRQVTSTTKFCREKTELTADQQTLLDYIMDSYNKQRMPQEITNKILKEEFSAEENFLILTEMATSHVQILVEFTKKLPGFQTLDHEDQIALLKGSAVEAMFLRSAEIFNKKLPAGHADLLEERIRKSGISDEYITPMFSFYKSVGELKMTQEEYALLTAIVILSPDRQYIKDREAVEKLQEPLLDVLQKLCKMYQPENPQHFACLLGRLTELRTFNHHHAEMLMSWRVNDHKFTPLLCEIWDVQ

Bile acid receptor [9] = biological target: T5, Bile acid receptor (Mus musculus, UniProt Q60641); test: Agonist activity at mouse LBD fused FXR in HEK293 cells incubated for 30 min by envision plate reader method; format: cell-based
T5 sequence (Q60641 whole entry): T4 sequence (whole entry)

[10] = AUC (total) in C57BL6 mouse at 5 mg/kg, po; format: ADME, organism-based; design: dose 5 mg/kg, route po; details: in vivo
[11] = Metabolic stability in rat liver microsome assessed as parent compound remaining at […] measured after 10 mins; format: ADME; details: liver microsomes, read-out: Stability
[12] = Oral bioavailability in Sprague-Dawley rat at 2 mg/kg; format: ADME, organism-based; details: in vivo
Cytochrome P450 2C19 = Cytochrome P450 2C19 (Homo sapiens, UniProt P33261); test: Inhibition of CYP2C19 in human liver microsomes using fluorogenic substrate preincubated for 15 min followed by NADPH addition measured after 2 hrs by fluorescence based assay; format: ADME, Microsome
Sequence of Cytochrome P450 2C19 (P33261 whole entry): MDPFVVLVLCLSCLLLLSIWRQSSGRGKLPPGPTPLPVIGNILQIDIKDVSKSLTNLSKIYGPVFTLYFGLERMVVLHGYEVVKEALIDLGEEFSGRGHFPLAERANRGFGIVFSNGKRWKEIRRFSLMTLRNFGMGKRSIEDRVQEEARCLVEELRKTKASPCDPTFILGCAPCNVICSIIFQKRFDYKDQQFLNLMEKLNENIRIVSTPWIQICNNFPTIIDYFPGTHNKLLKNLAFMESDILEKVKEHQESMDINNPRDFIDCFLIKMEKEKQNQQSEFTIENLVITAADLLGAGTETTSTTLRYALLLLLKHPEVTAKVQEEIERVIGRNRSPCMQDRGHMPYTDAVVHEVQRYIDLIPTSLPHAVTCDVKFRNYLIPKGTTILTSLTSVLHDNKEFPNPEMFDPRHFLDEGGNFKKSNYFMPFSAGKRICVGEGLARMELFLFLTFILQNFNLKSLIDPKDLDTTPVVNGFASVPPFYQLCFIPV

Cytochrome P450 3A4 = Cytochrome P450 3A4 (Homo sapiens, UniProt P08684); test: Inhibition of CYP3A4 in human liver microsomes using fluorogenic substrate preincubated for 15 min followed by NADPH addition measured after 2 hrs by fluorescence based assay; format: ADME, Microsome
Sequence of Cytochrome P450 3A4 (P08684 whole entry): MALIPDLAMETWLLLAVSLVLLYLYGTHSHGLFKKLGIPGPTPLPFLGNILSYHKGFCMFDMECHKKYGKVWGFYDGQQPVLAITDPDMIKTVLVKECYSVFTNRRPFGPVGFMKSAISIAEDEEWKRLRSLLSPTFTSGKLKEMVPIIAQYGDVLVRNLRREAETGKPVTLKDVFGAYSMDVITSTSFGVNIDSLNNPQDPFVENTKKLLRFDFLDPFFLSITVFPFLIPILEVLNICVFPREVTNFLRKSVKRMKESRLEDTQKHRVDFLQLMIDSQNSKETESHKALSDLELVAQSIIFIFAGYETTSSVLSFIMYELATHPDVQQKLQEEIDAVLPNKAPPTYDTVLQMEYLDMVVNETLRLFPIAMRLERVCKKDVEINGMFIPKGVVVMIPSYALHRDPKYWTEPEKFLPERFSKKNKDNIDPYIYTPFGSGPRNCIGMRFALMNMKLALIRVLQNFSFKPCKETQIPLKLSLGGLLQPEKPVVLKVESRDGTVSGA

[13] = Volume of distribution at steady state in C57BL6 mouse at 1 mg/kg, iv; format: ADME, organism-based; details: in vivo, read-out: Vdss
[14] = test system: Bile acid receptor (Homo sapiens); test: Agonist activity at human FXR expressed in HEK293 cells coexpressing human FGF19 incubated for 24 hrs by ELISA analysis relative to GW2064; details: filed as agonist
[15] = Metabolic stability in human liver microsome assessed as parent compound remaining at […] measured after 10 mins; format: ADME; details: liver microsomes, read-out: Stability

Compound: CC(C)(O)c1ccc(-c2cccc(N(CC34CCC(c5noc(C(C)(C)F)n5)(CC3)CC4)C(=O)[C@H]3C[C@](O)(C(F)(F)F)C3)c2)cc1
- Activity (Mus musculus): Dde
- IC50 (Bile salt export pump): 1400 nM
- clearance [1]: 4 mL/min/kg
- Emax [2]: 189%
- IC50 [3]: 1500 nM
- IC50 [4]: 4500 nM
- Vd [5]: 5.2 L/kg
- EC50 (Bile acid receptor [6]): 42 nM
- clearance [7]: 1.6 mL/min/kg
- Emax [8]: 601%
- EC50 (Bile acid receptor [9]): 14 nM
- AUC [10]: 56.6 µM·h
- remaining at 10 min [11]: 93%
- bioavailability [12]: 40%
- IC50 (Cytochrome P450 2C19): > 20000 nM
- IC50 (Cytochrome P450 3A4): > 20000 nM
- Vd [13]: 2.2 L/kg
- Emax [14]: 89%
- remaining at 10 min [15]: 100%
